IC50 and Kd data for 19 compounds are collected here from ChEMBL document CHEMBL3085717, “Structural and thermodynamic dissection of linear motif recognition by the E. coli sliding clamp” (J Med Chem, 2013).

pIC50, pKd: −log10 of the molar value. Peptide text beside a SMILES is read from it.

The assay in a line: Displacement of 5'-fluorescein(FAM)-QLDLF-OH from Escherichia coli AN1459 DNA polymerase 3beta by fluorescence polarization assay. On the technique in general: Fluorescence polarisation rises when a labelled molecule tumbles more slowly, as on binding a larger partner.
By pIC50 is commonly meant the IC50 on a negative log10 scale, so that one unit is a factor of ten. A low value points to a high IC50. In general, pKd refers to the negative decadic logarithm of the Kd, by convention in mol/L. Low readings indicate a high Kd, high ones a low Kd. The compound Ac-ALDLF-OH had a pIC50 of 3.22 and a pKd of 3.55.
Ac-ELDLF-OH gave a pIC50 of 3.65 and a negative logarithm of the Kd (pKd) of 3.98.
Compound Ac-QADLF-OH gave a pIC50 of 4.10 and a pKd of 4.44.
For Ac-QLALF-OH, the pIC50 was 5.47 and the pKd is 5.80.
In turn, Ac-QGDLF-OH had a pIC50 of 4.44 and a pKd of 4.77.
With Ac-QLGLF-OH, the negative logarithm of the IC50 (pIC50) was 4.98 and the pKd is 5.31.
Ac-NLDLF-OH had a pIC50 of 4.36 and a negative logarithm of the Kd (pKd) of 4.69.
Ac-QVDLF-OH had a pIC50 of 4.22 and a pKd of 4.55.
Ac-QLDAF-OH gave a negative logarithm of the IC50 (pIC50) of 3.61 and a negative logarithm of the Kd (pKd) of 3.94.
The like results for Ac-QLDLG-OH were, in that order, 2.97 and 3.30.
The compound Ac-QLDLA-OH gave a pIC50 of 3.26 and a pKd of 3.59.
As to `CC(C)C[C@H](NC(=O)[C@H](CC(=O)O)NC(=O)[C@H](CC(C)C)NC(=O)[C@@H](N)CCC(N)=O)C(=O)N[C@@H](Cc1ccccc1)C(=O)O`, the pIC50 was 4.20 and the pKd was 4.53.
The compound `CC(C)CCC(=O)N[C@@H](Cc1ccccc1)C(=O)O` had a pIC50 of 2.35.
Ac-QLDGF-OH showed a pIC50 of 2.82 and a pKd of 3.15.
The like results for Ac-GLDLF-OH were, in that order, 3.01 and 3.34.
As to `CC(=O)N[C@@H](CCC(N)=O)C(=O)N[C@@H](CC(C)C)C(=O)N[C@@H](CC(=O)O)C(=O)N[C@@H](CC(C)C)C(=O)N[C@@H](Cc1ccccc1)C(=O)O`, the pIC50 is 5.72 and the pKd is 6.05.
For the compound Ac-QLDVF-OH, the pIC50 was 2.92 and the pKd is 3.25.
Take `CC(=O)N[C@@H](CC(C)C)C(=O)N[C@@H](Cc1ccccc1)C(=O)O` (Ac-Leu-Phe-OH): the negative logarithm of the IC50 (pIC50) was 2.96.
The compound Ac-QLDLL-OH gave a pIC50 of 4.68 and a negative logarithm of the Kd (pKd) of 5.01.
